Data published in patent publication US12202832B2, “Heterocyclic compounds having a calcium-sensing receptor antagonistic activity” (TAKEDA PHARMACEUTICAL COMPANY LIMITED, priority 2017, dated 2025).

Molecular target: T1, human CaSR (Homo sapiens, UniProt P41180)
T1 construct: expressed in transfected cells; host or cells: CHO cells
T1 sequence (P41180 20-1078): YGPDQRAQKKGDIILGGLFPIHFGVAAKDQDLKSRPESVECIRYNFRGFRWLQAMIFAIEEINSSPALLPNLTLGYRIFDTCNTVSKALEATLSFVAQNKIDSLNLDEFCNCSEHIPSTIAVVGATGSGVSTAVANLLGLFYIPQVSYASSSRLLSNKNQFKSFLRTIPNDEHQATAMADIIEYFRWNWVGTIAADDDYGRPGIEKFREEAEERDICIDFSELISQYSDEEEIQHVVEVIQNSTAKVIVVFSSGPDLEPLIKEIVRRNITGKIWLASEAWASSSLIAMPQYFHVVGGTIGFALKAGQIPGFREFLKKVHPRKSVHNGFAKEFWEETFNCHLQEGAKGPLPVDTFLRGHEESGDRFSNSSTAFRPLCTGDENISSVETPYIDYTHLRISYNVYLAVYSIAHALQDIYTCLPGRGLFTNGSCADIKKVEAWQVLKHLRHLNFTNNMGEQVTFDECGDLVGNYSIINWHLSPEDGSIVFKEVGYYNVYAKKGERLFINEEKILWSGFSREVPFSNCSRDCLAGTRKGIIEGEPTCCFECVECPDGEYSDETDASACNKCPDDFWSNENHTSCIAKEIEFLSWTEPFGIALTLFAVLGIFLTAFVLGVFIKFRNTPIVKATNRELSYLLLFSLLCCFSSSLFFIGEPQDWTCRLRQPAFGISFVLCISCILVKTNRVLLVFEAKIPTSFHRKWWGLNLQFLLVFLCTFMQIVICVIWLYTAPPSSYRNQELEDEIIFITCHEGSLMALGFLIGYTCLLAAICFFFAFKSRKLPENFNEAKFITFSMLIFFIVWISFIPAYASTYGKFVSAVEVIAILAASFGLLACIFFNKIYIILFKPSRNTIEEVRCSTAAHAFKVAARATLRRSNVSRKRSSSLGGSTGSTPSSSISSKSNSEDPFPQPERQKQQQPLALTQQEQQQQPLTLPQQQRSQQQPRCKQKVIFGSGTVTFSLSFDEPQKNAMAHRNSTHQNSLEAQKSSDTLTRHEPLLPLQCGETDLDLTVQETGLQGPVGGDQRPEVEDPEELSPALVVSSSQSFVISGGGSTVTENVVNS
Assay: Human CaSR antagonist activity (NFAT-Luciferase reporter in CHO cells)
Assay type: cell-based
Conditions: CHO, CaCl2 final 1.3 mM, 100% = reference antagonist at 10 μM, read-out: Inhibition rate (%) at 3.3 μM
Description: CaSR antagonist activity measurement was performed using Bright-Glo Luciferase assay system (Promega Corporation). CHO cells in which human CaSR and NFAT-Luciferase reporter gene were forcibly expressed were suspended in MEM alpha (Wako Pure Chemical Industries, Ltd.) containing 10% dialyzed serum (HyClone). The cells in suspension was seeded in 384-well white plate (Corning) at 10,000/20 μL/well, and cultured in an incubator of 37° C., 5% CO2 for one day. A diluent of Test compound was prepared with assay buffer (MEM alpha containing 10 mM HEPES (Life Technologies) and 10% dialysis serum). The diluent was added to the plate at 5 μL/well and allowed to stand at 37° C. for 10 minutes. Further, a diluent of 7.8 mM CaCl2 prepared with assay buffer (final concentration 1.3 mM) was added at 5 μl/well and allowed to stand in an incubator of 37° C., 5% CO2 for 2 hours. Bright-Glo reagents (Promega Corporation) were added at 10 μL/well, and the obtained mixture was stirred for 5 minutes, and then luminescence intensity was measured using Multi-label reader Envision (PerkinElmer, Inc.). The activity (%) of the test compound was calculated with the definitions in which the luminescence intensity when DMSO is added in place of the test compound is defined as 0% inhibition; and the luminescence intensity when (5R)—N-(1-ethyl-1-(4-ethylphenyl)propyl)-2,7,7-trimethyl-5-phenyl-4,5,6,7-tetrahydropyrazolo[1,5-a] Pyrimidine-3-carboxamide at final concentration of 10 μM is added is defined as 100% inhibition.

SMILES: CCc1ccc([C@@](CC)(NC(=O)c2c(C)nn3c2N[C@@H](c2ccccc2)CC3(C)C)C(=O)N[C@@H](C)C(N)=O)cc1 [Example 1, (5R)-N-((2R)-1-(((2S)-1-Amino-1-oxopropan-2-yl)amino)-2-(4-ethylphenyl)-1-oxobutan-2-yl)-2,7,7-trimethyl-5-phenyl-4,5,6,7-tetrahydropyrazolo[1,5-a]pyrimidine-3-carboxamide]
- inhibition at 3.3 µM: 103%
